Experiment [1] addresses mutant HIV reverse transcriptases (Human immunodeficiency virus type 1, UniProt P12497, Y768C, cells depend on it). The experiment is classed as cell-based.
For experiment [2], the target named is mutant HIV reverse transcriptases (Human immunodeficiency virus type 1, UniProt P12497, Y775L, cells depend on it). The experiment is classed as cell-based.
The test system of another experiment is wild type HIV-1. Description: microbe, parasite or virus in culture. The experiment is classed as cell-based, human immunodeficiency virus type 1 (HIV-1).
The target in experiment [3] is T1, wild-type HIV reverse transcriptase (Human immunodeficiency virus type 1 group M subtype B, UniProt P04585).
T1 construct: wild-type and four mutant HIV reverse transcriptases
Description: Activity on wild type reverse transcriptase (Table 1 IC50 WT). The experiment is classed as biochemical.

The mark [4] stands for this setting: Human immunodeficiency virus 1, Hela-JC53, read-out: EC50 WT.
The mark [5] stands for this setting: read-out: EC50 WT, wild-type (WT) HIV-1.
Where [6] appears, read: read-out: IC50 WT RT, wild-type (WT) RT.

Read-outs that look alike come from different tables or passages of the source.

In the case of `CC(C)c1ccc(-n2c(SCC(=O)Nc3ccc(S(N)(=O)=O)cc3Cl)nnc2C(F)F)c2ccccc12` [compound 71], the EC50 (in experiment [1]; in experiment [2]; with wild type HIV-1 (setting [4])) was < 50 nM each time. For the same compound, the half-maximal inhibitory concentration (IC50) in experiment [3] was < 50 nM.

On to `COc1ccc2c(C3CC3)ccc(-n3c(Br)nnc3SCC(=O)Nc3ccc(S(N)(=O)=O)cc3Cl)c2c1` [compound 72], for which the EC50 (in experiment [1]; in experiment [2]; with wild type HIV-1 (setting [4])) was < 50 nM in each case. For the same compound, the IC50 in experiment [3] is < 50 nM.

As to `CCc1ccc(-n2c(Br)nnc2SCC(=O)Nc2ccc(S(N)(=O)=O)cc2Br)c2ccccc12` [compound 73], the EC50 (in experiment [1]; in experiment [2]; with wild type HIV-1 (setting [4])) was < 50 nM in each case. Moreover, in experiment [3], the IC50 is < 50 nM.

Take `COc1ccc2c(C)ccc(-n3c(Br)nnc3SCC(=O)Nc3ccc(S(N)(=O)=O)cc3Br)c2c1` [compound 74]: the EC50 (in experiment [1]; in experiment [2]; with wild type HIV-1 (setting [4])) was < 50 nM each time. The IC50 in experiment [3] is < 50 nM.

Regarding `NS(=O)(=O)c1ccc(NC(=O)CSc2nnc(Br)n2-c2ccc(C3CC3)cc2Cl)c(Cl)c1` [compound 75], the EC50 (in experiment [1]; in experiment [2]; in the experiment on wild type HIV-1 (setting [4])) was < 50 nM in each case. Besides, the IC50 in experiment [3] was < 50 nM.

As to `Cc1cc(C)c2ccccc2c1-n1c(SCC(=O)Nc2ccc(S(N)(=O)=O)cc2Cl)nnc1C(F)(F)F` [compound 83], the EC50 (in experiment [1]; in experiment [2]; with wild type HIV-1 (setting [4])) was < 50 nM throughout. In addition, in experiment [3], the IC50 is < 50 nM.

With `Cc1cc(C)c2ccccc2c1-n1c(SCC(=O)Nc2ccc(S(N)(=O)=O)cc2Cl)nnc1C(F)(F)F` [compound 84], the EC50 (in experiment [1]; in experiment [2]; in the experiment on wild type HIV-1 (setting [5])) was < 50 nM throughout. For the same compound, the IC50 in experiment [3] (setting [6]) is < 50 nM.

With `Cc1cc(S(N)(=O)=O)ccc1NC(=O)CSc1nnc(Br)n1-c1c(Cl)cc(C2CCC2)c2ccccc12` [compound 92], the EC50 (in experiment [1]; in experiment [2]; in the experiment with wild type HIV-1 (setting [4])) was < 50 nM in each case. Besides, the IC50 in experiment [3] was < 50 nM.

Turning to `CCc1ccc(-n2c(Br)nnc2SCC(=O)Nc2ccc(C(=O)NCC(=O)OC)cc2Cl)c2ccccc12` [compound 98], the EC50 (in experiment [1]; in experiment [2]; in the experiment with wild type HIV-1 (setting [4])) was < 50 nM each time. Besides, the IC50 in experiment [3] is < 50 nM.

On to `NS(=O)(=O)c1ccc(NC(=O)CSc2nnc(C(F)F)n2-c2ccc(C3CCCC3)c3ccccc23)c(Cl)c1` [compound 99], for which the EC50 in experiment [1] was < 50 nM; in experiment [2], > 100 nM; with wild type HIV-1 (setting [5]), < 50 nM. Further, the IC50 in experiment [3] (setting [6]) was < 50 nM.

Take `NS(=O)(=O)c1ccc(NC(=O)CSc2nnc(C(F)F)n2-c2ccc(C3CCC3)c3ccccc23)c(Cl)c1` [compound 100]: the EC50 (in experiment [1]; in experiment [2]; with wild type HIV-1 (setting [5])) was < 50 nM each time. Moreover, in experiment [3] (setting [6]), the IC50 is < 50 nM.

On to `CCOC(=O)CNC(=O)c1ccc(NC(=O)CSc2nnc(Br)n2-c2ccc(C3CC3)c3ccccc23)c(Cl)c1` [compound 101], for which the EC50 (in experiment [1]; in experiment [2]; in the experiment with wild type HIV-1 (setting [4])) was < 50 nM throughout. In experiment [3], the IC50 was < 50 nM.

Regarding `CCc1ccc(-n2c(Br)nnc2SCC(=O)Nc2ccc(C(=O)N[C@H](C(=O)OC)C(C)C)cc2Cl)c2ccccc12` [compound 102], the EC50 (in experiment [1]; in experiment [2]; in the experiment on wild type HIV-1 (setting [4])) was < 50 nM each time. The compound also came in with an IC50 in experiment [3] of 50 to 100 nM.

As for `COC(=O)[C@@H](NC(=O)c1ccc(NC(=O)CSc2nnc(Br)n2-c2ccc(C3CC3)c3ccccc23)c(Cl)c1)C(C)C` [compound 103], the results for the EC50 (in experiment [1]; in experiment [2]; with wild type HIV-1 (setting [4])) were < 50 nM, 50 to 100 nM and < 50 nM, respectively. Besides, the IC50 in experiment [3] was < 50 nM.

For `CCOC(=O)CCNC(=O)c1ccc(NC(=O)CSc2nnc(Br)n2-c2ccc(C3CC3)c3ccccc23)c(Cl)c1` [compound 104], the EC50 (in experiment [1]; in experiment [2]; in the experiment with wild type HIV-1 (setting [4])) was < 50 nM in each case. Besides, the IC50 in experiment [3] was < 50 nM.

As for `CCc1ccc(-n2c(Br)nnc2SCC(=O)Nc2ccc(C(=O)NCC(=O)O)cc2Cl)c2ccccc12` [compound 105], the EC50 is < 50 nM in experiment [1], 50 to 100 nM in experiment [2] and < 50 nM with wild type HIV-1 (setting [4]). In experiment [3], the IC50 was < 50 nM.

As for `CC(C)[C@H](NC(=O)c1ccc(NC(=O)CSc2nnc(Br)n2-c2ccc(C3CC3)c3ccccc23)c(Cl)c1)C(=O)O` [compound 106], the figures for the EC50 (in experiment [1]; in experiment [2]; in the experiment with wild type HIV-1 (setting [4])) were > 100 nM, 50 to 100 nM and < 50 nM, respectively. The IC50 in experiment [3] was 50 to 100 nM.

Turning to `CCOC(=O)CCNC(=O)c1ccc(NC(=O)CSc2nnc(Br)n2-c2ccc(CC)c3ccccc23)c(Cl)c1` [compound 107], the results for the EC50 (in experiment [1]; in experiment [2]; in the experiment on wild type HIV-1 (setting [4])) were < 50 nM, > 100 nM and < 50 nM, respectively. For the same compound, the IC50 in experiment [3] is < 50 nM.

In the case of `CCOC(=O)CN(C)C(=O)c1ccc(NC(=O)CSc2nnc(Br)n2-c2ccc(CC)c3ccccc23)c(Cl)c1` [compound 108], the EC50 (in experiment [1]; in experiment [2]; with wild type HIV-1 (setting [4])) was < 50 nM each time. The IC50 in experiment [3] was < 50 nM.

In the case of `CCOC(=O)CN(C)C(=O)c1ccc(NC(=O)CSc2nnc(Br)n2-c2ccc(C3CC3)c3ccccc23)c(Cl)c1` [compound 109], the EC50 (in experiment [1]; in experiment [2]; with wild type HIV-1 (setting [4])) was < 50 nM each time. This compound showed an IC50 in experiment [3] of 50 to 100 nM.

Turning to `O=C(O)CNC(=O)c1ccc(NC(=O)CSc2nnc(Br)n2-c2ccc(C3CC3)c3ccccc23)c(Cl)c1` [compound 110], the EC50 in experiment [1] is > 100 nM; in experiment [2] it was > 100 nM; with wild type HIV-1 (setting [4]), < 50 nM. Besides, the IC50 in experiment [3] was < 50 nM.

`CN(CC(=O)O)C(=O)c1ccc(NC(=O)CSc2nnc(Br)n2-c2ccc(C3CC3)c3ccccc23)c(Cl)c1` [compound 111]: the figures for the EC50 (in experiment [1]; in experiment [2]; in the experiment on wild type HIV-1 (setting [4])) were > 100 nM, > 100 nM and 50 to 100 nM, respectively. In addition, the IC50 in experiment [3] is < 50 nM.

In the case of `O=C(O)CCNC(=O)c1ccc(NC(=O)CSc2nnc(Br)n2-c2ccc(C3CC3)c3ccccc23)c(Cl)c1` [compound 112], the EC50 in experiment [1] was > 100 nM; in experiment [2], > 100 nM; with wild type HIV-1 (setting [4]), < 50 nM. Also, in experiment [3], the IC50 was < 50 nM.

For `COc1ccc2c(C3CC3)ccc(-n3c(Br)nnc3SCC(=O)Nc3ccc(S(=O)(=O)O)cc3Cl)c2c1` [compound 113], the EC50 in experiment [1] was 50 to 100 nM; in experiment [2], > 100 nM; in the experiment with wild type HIV-1 (setting [4]), 50 to 100 nM. For the same compound, the IC50 in experiment [3] is < 50 nM.

Turning to `CCOC(=O)[C@H](Cc1ccc(O)cc1)NC(=O)c1ccc(NC(=O)CSc2nnc(Br)n2-c2ccc(C3CC3)c3ccccc23)c(Cl)c1` [compound 114], the EC50 was < 50 nM in experiment [1], > 100 nM in experiment [2] and < 50 nM with wild type HIV-1 (setting [4]). In experiment [3], this compound had an IC50 of 50 to 100 nM.

On to `COC(=O)[C@H](CC(C)C)NC(=O)c1ccc(NC(=O)CSc2nnc(Br)n2-c2ccc(C3CC3)c3ccccc23)c(Cl)c1` [compound 115], for which the EC50 in experiment [1] was < 50 nM; in experiment [2], 50 to 100 nM; in the experiment with wild type HIV-1 (setting [4]) it was < 50 nM. Moreover, the IC50 in experiment [3] was < 50 nM.

Regarding `O=C(CSc1nnc(Br)n1-c1ccc(C2CC2)c2ccccc12)Nc1ccc(C(=O)N[C@@H](Cc2ccc(O)cc2)C(=O)O)cc1Cl` [compound 116], the EC50 in experiment [1] is > 100 nM; in experiment [2], > 100 nM; with wild type HIV-1 (setting [4]) it was 50 to 100 nM. In addition, the IC50 in experiment [3] is < 50 nM.

Take `CC(C)C[C@H](NC(=O)c1ccc(NC(=O)CSc2nnc(Br)n2-c2ccc(C3CC3)c3ccccc23)c(Cl)c1)C(=O)O` [compound 117]: the results for the EC50 (in experiment [1]; in experiment [2]; with wild type HIV-1 (setting [4])) were 50 to 100 nM, > 100 nM and < 50 nM, respectively. The IC50 in experiment [3] was < 50 nM.

Take `CCc1ccc(-n2c(Br)nnc2SCC(=O)Nc2ccc(C(=O)NCC(OC)OC)cc2Cl)c2ccccc12` [compound 118]: the EC50 (in experiment [1]; in experiment [2]; in the experiment on wild type HIV-1 (setting [4])) was < 50 nM each time. In addition, the IC50 in experiment [3] is < 50 nM.

Regarding `CCc1ccc(-n2c(Br)nnc2SCC(=O)Nc2ccc(C(=O)NCCN(C)C)cc2Cl)c2ccccc12` [compound 119], the EC50 (in experiment [1]; in experiment [2]; in the experiment on wild type HIV-1 (setting [4])) was < 50 nM each time. Further, the IC50 in experiment [3] was < 50 nM.

Consider `CCc1ccc(-n2c(Br)nnc2SCC(=O)Nc2ccc(C(=O)NCC(O)CO)cc2Cl)c2ccccc12` (centres unmarked) [compound 120], for which the EC50 (in experiment [1]; in experiment [2]; with wild type HIV-1 (setting [4])) was < 50 nM throughout. For the same compound, the IC50 in experiment [3] was < 50 nM.

For `CCCCNC(=O)c1ccc(NC(=O)CSc2nnc(Br)n2-c2ccc(CC)c3ccccc23)c(Cl)c1` [compound 121], the 50% effective concentration (EC50) (in experiment [1]; in experiment [2]; in the experiment on wild type HIV-1 (setting [4])) was < 50 nM each time. In addition, in experiment [3], the IC50 was in the range of 50 to 100 nM.

In the case of `CCCCCCNC(=O)c1ccc(NC(=O)CSc2nnc(Br)n2-c2ccc(CC)c3ccccc23)c(Cl)c1` [compound 122], the EC50 in experiment [1] was < 50 nM; in experiment [2], 50 to 100 nM; with wild type HIV-1 (setting [4]), < 50 nM. In addition, the IC50 in experiment [3] was < 50 nM.

Consider `CCc1ccc(-n2c(Br)nnc2SCC(=O)Nc2ccc(C(=O)NCCN3CCCC3)cc2Cl)c2ccccc12` [compound 123], for which the EC50 (in experiment [1]; in experiment [2]; in the experiment on wild type HIV-1 (setting [4])) was < 50 nM each time. In experiment [3], the IC50 is < 50 nM.

In the case of `CCc1ccc(-n2c(Br)nnc2SCC(=O)Nc2ccc(C(=O)NCC3CCCCC3)cc2Cl)c2ccccc12` [compound 124], the EC50 (in experiment [1]; in experiment [2]; with wild type HIV-1 (setting [4])) was < 50 nM throughout. Also, the IC50 in experiment [3] is < 50 nM.

As a reminder, the EC50 is the concentration giving half of the maximal effect. A word on the IC50: it is the concentration that gives 50% inhibition.

The values above are taken from patent US8946273B2, “S-Triazolyl alpha-mercapto acetanilides as inhibitors of HIV reverse transcriptase” (priority 2011, dated 2015).
